In ChEMBL document CHEMBL1201862, “PubChem BioAssay data set” (2004):
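1) Cells in 96-well plates. 2) Compound, 48 h, 5 concentrations. 3) Linear interpolation between surrounding doses. 4) Unreached endpoint = highest concentration. GI50 = concentration required for 50% inhibition of growth.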 Activity calls are given as the source filed them. Cut-off read from the data, not from the text of the source: active = GI50 up to about 1.1 µM and inactive = higher.

Assays:
Experiment in all cases: NCI tumour cell line growth inhibition, 48 h
786-0 = tested on: 786-0
A498 = tested on: A498
A549 = tested on: A549
ACHN = tested on: ACHN
BT-549 = tested on: BT-549
CAKI-1 = tested on: CAKI-1
CCRF-CEM = tested on: CCRF-CEM
COLO 205 = tested on: COLO 205
DU-145 = tested on: DU-145
EKVX = tested on: EKVX
HCC 2998 = tested on: HCC 2998
HCT-116 = tested on: HCT-116
HCT-15 = tested on: HCT-15
HL-60 = tested on: HL-60
HOP-62 = tested on: HOP-62
HOP-92 = tested on: HOP-92
HT-29 = tested on: HT-29
Hs-578T = tested on: Hs-578T
IGROV-1 = tested on: IGROV-1
K562 = tested on: K562
KM12 = tested on: KM12
LOX IMVI = tested on: LOX IMVI
M14 = tested on: M14
MCF7 = tested on: MCF7
MDA-MB-231 = tested on: MDA-MB-231
MDA-MB-435 = tested on: MDA-MB-435
MDA-N = tested on: MDA-N
MOLT-4 = tested on: MOLT-4
Malme-3M = tested on: Malme-3M
NCI-H226 = tested on: NCI-H226
NCI-H23 = tested on: NCI-H23
NCI-H460 = tested on: NCI-H460
NCI-H522 = tested on: NCI-H522
NCI/ADR-RES = tested on: NCI/ADR-RES
OVCAR-3 = tested on: OVCAR-3
OVCAR-4 = tested on: OVCAR-4
OVCAR-5 = tested on: OVCAR-5
OVCAR-8 = tested on: OVCAR-8
PC-3 = tested on: PC-3
RPMI-8226 = tested on: RPMI-8226
RXF 393 = tested on: RXF 393
SF-268 = tested on: SF-268
SF-295 = tested on: SF-295
SF-539 = tested on: SF-539
SK-MEL-28 = tested on: SK-MEL-28
SK-MEL-2 = tested on: SK-MEL-2
SK-MEL-5 = tested on: SK-MEL-5
SK-OV-3 = tested on: SK-OV-3
SN12C = tested on: SN12C
SNB-19 = tested on: SNB-19
SNB-75 = tested on: SNB-75
SR = tested on: SR
SW-620 = tested on: SW-620
T47D = tested on: T47D
TK-10 = tested on: TK-10
U-251 = tested on: U-251
UACC-257 = tested on: UACC-257
UACC-62 = tested on: UACC-62
UO-31 = tested on: UO-31
DLD-1 = tested on: DLD-1
DMS-114 = tested on: DMS-114
DMS-273 = tested on: DMS-273
KM-20L2 = tested on: KM-20L2
LXFL 529 = tested on: LXFL 529
M19-MEL = tested on: M19-MEL
XF498 = tested on: XF498

`CCOC(=O)c1ccc2nc(-c3ccc(S(=O)(=O)F)cc3)cc(O)c2c1` was tested, and the GI50 (786-0) was 36.4 µM (inactive), the GI50 (A498) was 14.8 µM (inactive) and the GI50 (A549) was 53.3 µM (inactive). The GI50 (ACHN) was 24.2 µM (inactive), the GI50 (BT-549) was 37.8 µM (inactive) and the GI50 (CAKI-1) was 39.9 µM (inactive). The GI50 (CCRF-CEM) was 30.7 µM (inactive), the GI50 (COLO 205) was 58.9 µM (inactive) and the GI50 (DU-145) was 48.9 µM (inactive). For the same molecule, the GI50 (EKVX) was > 100 µM (inactive), the GI50 (HCC 2998) was 14.5 µM (inactive) and the GI50 (HCT-116) was 23.1 µM (inactive). For the same molecule, the GI50 (HCT-15) was 31.6 µM, the GI50 (HL-60) was 26.7 µM (inactive) and the GI50 (HOP-62) was 32.5 µM (inactive). The GI50 (HOP-92) was > 100 µM (inactive), the GI50 (HT-29) was 62.1 µM (inactive) and the GI50 (Hs-578T) was 54.8 µM (inactive). The GI50 (IGROV-1) was 48.8 µM (inactive), the GI50 (K562) was 42.8 µM (inactive) and the GI50 (KM12) was 29.8 µM (inactive). For the same molecule, the GI50 (LOX IMVI) was 36.5 µM (inactive), the GI50 (M14) was 40.9 µM (inactive) and the GI50 (MCF7) was 30.1 µM (inactive). For the same molecule, the GI50 (MDA-MB-231) was 36.3 µM (inactive), the GI50 (MDA-MB-435) was 40.9 µM (inactive) and the GI50 (MDA-N) was 33.5 µM (inactive). The GI50 (MOLT-4) was 36.8 µM (inactive), the GI50 (Malme-3M) was 25.1 µM (inactive) and the GI50 (NCI-H226) was > 100 µM (inactive). The GI50 (NCI-H23) was 21.6 µM (inactive), the GI50 (NCI-H460) was 34.4 µM (inactive) and the GI50 (NCI-H522) was 15.8 µM (inactive). For the same molecule, the GI50 (NCI/ADR-RES) was > 100 µM (inactive), the GI50 (OVCAR-3) was 19.6 µM (inactive) and the GI50 (OVCAR-4) was 65.3 µM (inactive). For the same molecule, the GI50 (OVCAR-5) was > 100 µM (inactive), the GI50 (OVCAR-8) was 61.2 µM (inactive) and the GI50 (PC-3) was 50.6 µM (inactive). For the same molecule, the GI50 (RPMI-8226) was 45.9 µM (inactive), the GI50 (RXF 393) was 31.9 µM (inactive) and the GI50 (SF-268) was 60.8 µM (inactive). For the same molecule, the GI50 (SF-295) was 39.8 µM (inactive), the GI50 (SF-539) was 56.5 µM (inactive) and the GI50 (SK-MEL-28) was 59.6 µM (inactive). For the same molecule, the GI50 (SK-MEL-2) was 27.5 µM (inactive), the GI50 (SK-MEL-5) was 50.2 µM (inactive) and the GI50 (SK-OV-3) was 38.9 µM (inactive). The GI50 (SN12C) was 43.9 µM (inactive), the GI50 (SNB-19) was > 100 µM (inactive) and the GI50 (SNB-75) was 25.2 µM (inactive). For the same molecule, the GI50 (SR) was 35.5 µM (inactive), the GI50 (SW-620) was 76.7 µM (inactive) and the GI50 (T47D) was 25.1 µM (inactive). The GI50 (TK-10) was 27.7 µM (inactive), the GI50 (U-251) was 34.9 µM (inactive) and the GI50 (UACC-257) was 51.8 µM (inactive). The GI50 (UACC-62) was 24 µM (inactive) and the GI50 (UO-31) was 71 µM (inactive).
With `CC(=O)O/N=C/c1cc2c(cc1Br)OCO2` the GI50 (786-0) was > 349 µM (inactive), the GI50 (A549) was > 349 µM (inactive) and the GI50 (ACHN) was > 349 µM (inactive). For the same molecule, the GI50 (CAKI-1) was > 349 µM (inactive), the GI50 (CCRF-CEM) was > 349 µM (inactive) and the GI50 (COLO 205) was > 349 µM (inactive). The GI50 (DLD-1) was > 349 µM (inactive), the GI50 (DMS-114) was > 349 µM (inactive) and the GI50 (DMS-273) was > 349 µM (inactive). The GI50 (EKVX) was > 349 µM (inactive), the GI50 (HCC 2998) was > 349 µM (inactive) and the GI50 (HCT-15) was > 349 µM. For the same molecule, the GI50 (HL-60) was > 349 µM (inactive), the GI50 (HOP-62) was > 349 µM (inactive) and the GI50 (HOP-92) was > 349 µM (inactive). For the same molecule, the GI50 (HT-29) was > 349 µM (inactive), the GI50 (IGROV-1) was > 349 µM (inactive) and the GI50 (K562) was > 349 µM (inactive). The GI50 (KM-20L2) was > 349 µM (inactive), the GI50 (KM12) was > 349 µM (inactive) and the GI50 (LOX IMVI) was > 349 µM (inactive). For the same molecule, the GI50 (LXFL 529) was > 349 µM (inactive), the GI50 (M19-MEL) was > 349 µM (inactive) and the GI50 (MOLT-4) was > 349 µM (inactive). For the same molecule, the GI50 (Malme-3M) was > 349 µM (inactive), the GI50 (NCI-H23) was > 349 µM (inactive) and the GI50 (NCI-H460) was > 349 µM (inactive). The GI50 (NCI-H522) was 185 µM (inactive), the GI50 (OVCAR-3) was 137 µM (inactive) and the GI50 (OVCAR-5) was > 349 µM (inactive). The GI50 (OVCAR-8) was > 349 µM (inactive), the GI50 (RPMI-8226) was > 349 µM (inactive) and the GI50 (RXF 393) was > 349 µM (inactive). For the same molecule, the GI50 (SF-268) was > 349 µM (inactive), the GI50 (SF-295) was 291 µM (inactive) and the GI50 (SK-MEL-28) was > 349 µM (inactive). For the same molecule, the GI50 (SK-MEL-2) was > 349 µM (inactive), the GI50 (SK-MEL-5) was > 349 µM (inactive) and the GI50 (SK-OV-3) was > 349 µM (inactive). The GI50 (SN12C) was > 349 µM (inactive), the GI50 (SR) was > 349 µM (inactive) and the GI50 (SW-620) was > 349 µM (inactive). For the same molecule, the GI50 (TK-10) was > 349 µM (inactive), the GI50 (U-251) was > 34.9 µM (inactive) and the GI50 (UACC-257) was > 349 µM (inactive). For the same molecule, the GI50 (UACC-62) was > 349 µM (inactive) and the GI50 (XF498) was > 349 µM (inactive).
